Test: xn = mol fraction of the nth substance listed
Settings: Liquid, Pycnometric method

Cn1ccnc1 [1-methylimidazole] + O=C=O
Settings | mass density [kg/m3]
313.1 K, 11200 kPa, x1 = 0.0247 | 802
313.1 K, 11280 kPa, x1 = 0.0487 | 852
313.1 K, 11440 kPa, x1 = 0.0487 | 855
313.1 K, 11540 kPa, x1 = 0.0102 | 771
313.1 K, 11540 kPa, x1 = 0.1024 | 928
313.1 K, 11580 kPa, x1 = 0.0247 | 811
313.1 K, 11620 kPa, x1 = 0.0487 | 858
313.1 K, 11740 kPa, x1 = 0.1024 | 930
313.1 K, 11790 kPa, x1 = 0.0487 | 860
313.1 K, 11980 kPa, x1 = 0.0487 | 862
313.1 K, 11990 kPa, x1 = 0.1024 | 933
313.1 K, 12000 kPa, x1 = 0.0247 | 819
313.1 K, 12070 kPa, x1 = 0.0102 | 786
313.1 K, 12180 kPa, x1 = 0.0487 | 865
313.1 K, 12320 kPa, x1 = 0.1024 | 936
313.1 K, 12490 kPa, x1 = 0.0247 | 828
313.1 K, 12620 kPa, x1 = 0.1024 | 939
313.1 K, 12700 kPa, x1 = 0.0102 | 800
313.1 K, 12970 kPa, x1 = 0.1024 | 942
313.1 K, 13010 kPa, x1 = 0.0247 | 837
313.1 K, 13280 kPa, x1 = 0.1024 | 944
313.1 K, 13460 kPa, x1 = 0.0102 | 816
313.1 K, 13600 kPa, x1 = 0.0247 | 846
313.1 K, 13660 kPa, x1 = 0.1024 | 947
313.1 K, 14020 kPa, x1 = 0.1024 | 950
313.1 K, 14280 kPa, x1 = 0.0247 | 855
313.1 K, 14340 kPa, x1 = 0.0102 | 832
313.1 K, 14430 kPa, x1 = 0.1024 | 954
313.1 K, 14780 kPa, x1 = 0.1024 | 956
313.1 K, 14970 kPa, x1 = 0.0247 | 865
313.1 K, 15010 kPa, x1 = 0.0102 | 842
313.1 K, 15210 kPa, x1 = 0.1024 | 959
313.1 K, 15360 kPa, x1 = 0.0247 | 870
313.1 K, 15650 kPa, x1 = 0.1024 | 963
313.1 K, 15790 kPa, x1 = 0.0247 | 875
313.1 K, 16150 kPa, x1 = 0.1024 | 966
313.1 K, 16220 kPa, x1 = 0.0247 | 880
313.1 K, 16560 kPa, x1 = 0.1024 | 969
313.1 K, 16690 kPa, x1 = 0.0247 | 885
313.1 K, 17100 kPa, x1 = 0.1024 | 972
313.1 K, 17540 kPa, x1 = 0.1024 | 975
313.1 K, 18150 kPa, x1 = 0.1024 | 979
313.1 K, 18570 kPa, x1 = 0.1024 | 981
313.1 K, 18940 kPa, x1 = 0.1024 | 983
317.9 K, 9730 kPa, x1 = 0.0102 | 555
317.9 K, 9780 kPa, x1 = 0.0102 | 563
317.9 K, 9850 kPa, x1 = 0.0102 | 573
317.9 K, 9910 kPa, x1 = 0.0102 | 583
317.9 K, 9990 kPa, x1 = 0.0102 | 594
317.9 K, 10080 kPa, x1 = 0.0102 | 606
317.9 K, 10180 kPa, x1 = 0.0102 | 618
317.9 K, 10180 kPa, x1 = 0.0247 | 708
317.9 K, 10300 kPa, x1 = 0.0102 | 630
317.9 K, 10340 kPa, x1 = 0.0247 | 716
317.9 K, 10440 kPa, x1 = 0.0102 | 643
317.9 K, 10490 kPa, x1 = 0.0247 | 723
317.9 K, 10620 kPa, x1 = 0.0102 | 656
317.9 K, 10640 kPa, x1 = 0.0247 | 730
317.9 K, 10810 kPa, x1 = 0.0102 | 670
317.9 K, 10810 kPa, x1 = 0.0247 | 737
317.9 K, 11000 kPa, x1 = 0.0247 | 744
317.9 K, 11050 kPa, x1 = 0.0102 | 684
317.9 K, 11220 kPa, x1 = 0.0247 | 751
317.9 K, 11330 kPa, x1 = 0.0102 | 699
317.9 K, 11460 kPa, x1 = 0.0247 | 758
317.9 K, 11510 kPa, x1 = 0.0487 | 815
317.9 K, 11590 kPa, x1 = 0.0487 | 817
317.9 K, 11680 kPa, x1 = 0.0102 | 715
317.9 K, 11700 kPa, x1 = 0.0487 | 820
317.9 K, 11710 kPa, x1 = 0.0247 | 766
317.9 K, 11820 kPa, x1 = 0.0487 | 822
317.9 K, 11960 kPa, x1 = 0.0247 | 774
317.9 K, 11970 kPa, x1 = 0.0487 | 825
317.9 K, 12080 kPa, x1 = 0.0487 | 827
317.9 K, 12100 kPa, x1 = 0.0102 | 731
317.9 K, 12210 kPa, x1 = 0.0487 | 830
317.9 K, 12290 kPa, x1 = 0.0247 | 781
317.9 K, 12350 kPa, x1 = 0.0487 | 833
317.9 K, 12480 kPa, x1 = 0.0487 | 836
317.9 K, 12640 kPa, x1 = 0.0102 | 749
317.9 K, 12640 kPa, x1 = 0.0487 | 838
317.9 K, 12820 kPa, x1 = 0.0247 | 793
317.9 K, 12930 kPa, x1 = 0.0487 | 843
317.9 K, 13150 kPa, x1 = 0.1024 | 919
317.9 K, 13260 kPa, x1 = 0.0102 | 766
317.9 K, 13300 kPa, x1 = 0.0487 | 849
317.9 K, 13400 kPa, x1 = 0.1024 | 922
317.9 K, 13440 kPa, x1 = 0.0247 | 806
317.9 K, 13660 kPa, x1 = 0.0487 | 854
317.9 K, 13720 kPa, x1 = 0.1024 | 925
317.9 K, 13980 kPa, x1 = 0.1024 | 927
317.9 K, 14030 kPa, x1 = 0.0487 | 860
317.9 K, 14060 kPa, x1 = 0.0102 | 785
317.9 K, 14140 kPa, x1 = 0.0247 | 819
317.9 K, 14310 kPa, x1 = 0.1024 | 930
317.9 K, 14450 kPa, x1 = 0.0487 | 866
317.9 K, 14560 kPa, x1 = 0.1024 | 933
317.9 K, 14670 kPa, x1 = 0.0247 | 828
317.9 K, 14710 kPa, x1 = 0.1024 | 934
317.9 K, 14880 kPa, x1 = 0.1024 | 936
317.9 K, 15050 kPa, x1 = 0.0102 | 806
317.9 K, 15130 kPa, x1 = 0.1024 | 938
317.9 K, 15280 kPa, x1 = 0.0247 | 837
317.9 K, 15330 kPa, x1 = 0.1024 | 939
317.9 K, 15480 kPa, x1 = 0.1024 | 941
317.9 K, 15570 kPa, x1 = 0.0247 | 841
317.9 K, 15630 kPa, x1 = 0.1024 | 942
317.9 K, 15890 kPa, x1 = 0.0102 | 821
317.9 K, 15920 kPa, x1 = 0.0247 | 846
317.9 K, 15950 kPa, x1 = 0.1024 | 944
317.9 K, 16260 kPa, x1 = 0.0247 | 851
317.9 K, 16380 kPa, x1 = 0.1024 | 947
317.9 K, 16620 kPa, x1 = 0.0247 | 855
317.9 K, 16800 kPa, x1 = 0.1024 | 950
317.9 K, 16910 kPa, x1 = 0.0102 | 837
317.9 K, 17010 kPa, x1 = 0.0247 | 860
317.9 K, 17180 kPa, x1 = 0.1024 | 953
317.9 K, 17600 kPa, x1 = 0.1024 | 956
317.9 K, 18050 kPa, x1 = 0.1024 | 959
317.9 K, 18370 kPa, x1 = 0.1024 | 962
317.9 K, 18750 kPa, x1 = 0.1024 | 964
317.9 K, 18990 kPa, x1 = 0.1024 | 965
322.7 K, 10720 kPa, x1 = 0.0102 | 558
322.7 K, 10820 kPa, x1 = 0.0102 | 568
322.7 K, 10930 kPa, x1 = 0.0102 | 578
322.7 K, 11040 kPa, x1 = 0.0102 | 589
322.7 K, 11140 kPa, x1 = 0.0102 | 600
322.7 K, 11270 kPa, x1 = 0.0102 | 612
322.7 K, 11430 kPa, x1 = 0.0102 | 624
322.7 K, 11460 kPa, x1 = 0.0247 | 701
322.7 K, 11570 kPa, x1 = 0.0247 | 706
322.7 K, 11610 kPa, x1 = 0.0102 | 636
322.7 K, 11730 kPa, x1 = 0.0247 | 712
322.7 K, 11810 kPa, x1 = 0.0102 | 649
322.7 K, 11910 kPa, x1 = 0.0247 | 719
322.7 K, 12030 kPa, x1 = 0.0102 | 663
322.7 K, 12090 kPa, x1 = 0.0247 | 726
322.7 K, 12300 kPa, x1 = 0.0102 | 677
322.7 K, 12300 kPa, x1 = 0.0247 | 733
322.7 K, 12520 kPa, x1 = 0.0247 | 740
322.7 K, 12640 kPa, x1 = 0.0102 | 692
322.7 K, 12750 kPa, x1 = 0.0247 | 747
